Data from patent publication US20130039956A1, “USE OF NITROCARBOXYLIC ACIDS FOR THE TREATMENT, DIAGNOSIS AND PROPHYLAXIS OF AGGRESSIVE HEALING PATTERNS” (priority 2010, published 2013).

Columns and labels:
[1] = test system: Tracheas of adult Wistar rats; assay: Tissue damage due to barotrauma ex vivo (tracheal rings); type: cell-based; details: tracheal rings bathed 15 minutes, balloon 4 atm 4 hours; compared with native FA; note: key: 0: not superior to native FA (control); +: Superior to native FA; ++: superior to both; +++: outstanding effect
Method: In order to determine the effects of nitrated fatty acids on mechanical trauma to tracheal cells, an ex vivo model was established. Tracheas of adult Wistar rats sacrificed with thiopental given intraabdominally were carefully resected (harvested). Whole (intact) tracheas were cultured in DMEM 10 (Sigma) supplemented with antibiotic/antimycotic drugs for 48 hours at 37° C. Tracheas were cut into five pieces of equal size. One piece was immediately analyzed, two were bathed in 0.9% saline, one was bathed in a solution containing native fatty acid in SDS (1%), and one was bathed in a solution containing nitro fatty acid, respectively, for 15 minutes each. The inner diameters of the tracheal rings were measured. A non-compliant balloon catheter for use in vascular interventions was chosen, so that the nominal balloon diameter was 15-20% larger than that of the trachea. One tracheal ring pretreated with 0.9% saline was left untreated; the other prepared tracheal rings were mounted on the balloon catheter, which was inflated to a pressure of 4 atm thereafter. Balloons were kept inflated for 4 hours, while being positioned in the culture medium. Thereafter, the tracheal rings were further cultivated in separate vials for 24 hours. In a separate set of investigations, sense/antisense ODNs for HO-1 (Invitrogen) directed against the translation initiation codon in the HO-1 cDNA was used to inhibit hemoxydase-1 synthesis. The cells were transfected using the Superfect transfection reagent (Qiagen) before traumatization. In another set of experiments, the HO inhibitor SnPP IX (Porphyrin Products, London, UK) was added to the culture medium 6 hours before traumatization at a dose of 10 micromol.
For analysis, the rings were cut into small strips using a no touch technique. Viability was tested using a MTT assay and apoptosis using a TUNEL assay. Anti-HO-1 antibodies (StressGen, Tebu, Le-Perray-en-Yvelines, France) were measured by Western blot and immunohistochemistry.

TRPV-1 = molecular target: T1, TRPV-1 (Mus musculus, UniProt Q704Y3); assay: Signal transduction of receptors of the TRP-protein family in retinal slices; type: cell-based, mice; details: 10 and 50 μmol, capsaicin 10 μmol or acid pH; compared with native FA; note: key: 0: not superior to native FA (control); +: Superior to native FA; ++: superior to both; +++: outstanding effect
T1 construct: Whole retinas were isolated and cut into 100 μm slices using a tissue slicer; from tissue; host or cells: mouse retinal slices (100 μm)
Method: In order to determine the effect of nitrated fatty acids on receptor signal transduction, an in vitro model was used. Retinal slices from cadaver mice were prepared as described by Snellman and Nawy (Snellman J. Nawy S (2004). cGMP-dependent kinase regulates response sensitivity of the mouse on bipolar cell. J Neurosci 24:6621-6628). Whole retinas were isolated and cut into 100 μm slices using a tissue slicer and than transferred to the recording chamber. The chamber was continuously perfused with Ames media and oxygenated. Picrotoxin (100 μM), strychnine (10 μM), and TPMPA (50 μM) were added. Each nitro fatty acid was added in two experiments to achieve a final concentration of 10 μmol, and in another two experiments to achieve a final concentration of 50 μmol. In two experiments, the corresponding native fatty acid was added to achieve a final concentration of 10 and 50 μmol, and in two experiments saline solution was added which served as controls. Currents were measured via tissue electrodes and monitored throughout the investigation. After incubating the solution for 2 hours, the TRPV-1 agonist capsaicin was added to achieve a final concentration of 10 μmol. Experiments were performed using either 10 mmol Hepes or 10 mmol Mes adjusting the pH of the solution to 6.4 or 4.4, respectively. Furthermore, experiments were performed without or with preincubation (5 minutes) of the TRPV-1 antagonist capsazepine. The solution temperature was held constant at 35° C.

pericardial strips = assay: Cold induced injury in a whole tissue ex-vivo model (pericardium); type: cell-based, Wistar rats; details: 200 μmol, 10 min, two cooling cycles; compared with native FA; note: key: 0: not superior to native FA (control); +: Superior to native FA; ++: superior to both; +++: outstanding effect
Text: To determine whether nitrated fatty acids can be used to preserve cells and tissues from cold or cryoinjury, an in vitro model utilizing murine epicardium was established. The experimental set-up should reduce the possibility of ischemia or reperfusion injury to a minimum, but at the same time allow differentiation of the contribution of ischemia/reperfusion injury-triggered cell death, which is known to occur almost exclusively via apoptosis, whereas cell death induced by cold injury almost exclusively results in necrosis.
The pericardial sac was carefully resected in 24 anesthetized Wistar rats (180-270 g) of either sex. Care was taken to grasp the pericardium with a forceps only at the cutting edges and reduce traumatization of the central portions of the pericardium to a minimum. After resection, the cutting edge and the former apex area of the pericardium were dissected, as to obtain flat tissue strips which were placed immediately in the culture medium (DMEM) containing 10% FCS and antibiotics (penicillin, streptomycin). Tissue samples were cultured in an oxygen atmosphere at 18° C. for 2 days. […] Then the pericardial strips were cut into 4 pieces of equal size. One piece was further cultivated at 37° C. without undergoing the cooling cycles, thus, serving as the control. In each of three investigations, one piece was bathed in a solution (0.9% saline and 1% SDS) containing 200 μmol nitro-fatty acid or contained 200 μmol of the corresponding native fatty acid, for 10 min at a temperature of 18° C. One piece of pericardium was bathed in a solution without fatty acids under otherwise identical conditions. All samples were cooled by continuously decreasing from ambient temperature at a rate of 3° C./min to a minimum temperature of […]. After 1 hour, the samples were rewarmed at a rate of 3° C./min by continuously increasing the temperature until a temperature of 18° C., was achieved. Thereafter an identical cooling and rewarming cycle was performed. After the second cooling cycle, the tissue pieces were further cultured in the culture medium for 1 day allowing continuous adaptation to an ambient temperature of 37° C. For analytical preparations the pericardial pieces were out and further processed. A direct TUNEL assay (Roche) was use for quantification of apoptosis, an annexin V/propidium iodide exclusion assay (Roche) was used to quantify the number of necrotic cells, and viability was determined by the WST-8 assay. Furthermore, the LDH release was quantified in the supernatants.
To rule out that cell death has been induced by ischemia or reperfusion (reoxygenation), in one series of experiments, a control sample was incubated with an all-caspase inhibitor (Q-VD-OPH, BioVision, USA) reconstituted in DMSO before the sample was exposed to cold.

[2] = test system: Human epithelial lung cells (A549); assay: Membrane protein mediated cytotoxicity (NaF) in epithelial cells, MTT assay; details: 10 and 50 μmol, 2 hours preincubation, NaF 1-8 mmol; compared with native FA
Method: Human epithelial lung cells (A549) were cultured and transferred to an isotonic medium. Cell suspensions were incubated with saline solution, native fatty acid (10 and 50 μmol), or nitro fatty acid (10 and 50 μmol) for 2 hours. Sodium fluoride (NaF) was added to achieve concentrations between 1 and 8 mmol. Cells were separated and washed after 24 hours of exposure. The MTT assay was used to evaluate apoptosis rates.

macrophages = assay: Foreign body model (fusion of macrophages, IL-4); type: cell-based; details: polymeric coating on stainless steel; compared with native FA; note: key: 0: not superior to native FA (control); +: Superior to native FA; ++: superior to both; +++: outstanding effect
Text: Organisms react to the contact with a not completely biocompatible surface with a stereotypic chain of reactions. This is preceded by aggregation of plasmaproteins which initiate adhesion of monocytes. As a response to incompatibility, structural changes and fusion of those monocytes to form giant cells occur. The formation of giant cells is a key component in the development of a foreign body reaction. […] Predictability of foreign body reaction has been validated in an in-vitro model by monitoring fusion of macrophages in response to IL-4 exposition. Using this model a polymeric coating of a stainless steel support material containing variable amounts of nitro fatty acids or native fatty acids or just coated with the sole polymer were exposed to plasma with various concentrations of vitronectin.

T1 sequence (Q704Y3 whole entry): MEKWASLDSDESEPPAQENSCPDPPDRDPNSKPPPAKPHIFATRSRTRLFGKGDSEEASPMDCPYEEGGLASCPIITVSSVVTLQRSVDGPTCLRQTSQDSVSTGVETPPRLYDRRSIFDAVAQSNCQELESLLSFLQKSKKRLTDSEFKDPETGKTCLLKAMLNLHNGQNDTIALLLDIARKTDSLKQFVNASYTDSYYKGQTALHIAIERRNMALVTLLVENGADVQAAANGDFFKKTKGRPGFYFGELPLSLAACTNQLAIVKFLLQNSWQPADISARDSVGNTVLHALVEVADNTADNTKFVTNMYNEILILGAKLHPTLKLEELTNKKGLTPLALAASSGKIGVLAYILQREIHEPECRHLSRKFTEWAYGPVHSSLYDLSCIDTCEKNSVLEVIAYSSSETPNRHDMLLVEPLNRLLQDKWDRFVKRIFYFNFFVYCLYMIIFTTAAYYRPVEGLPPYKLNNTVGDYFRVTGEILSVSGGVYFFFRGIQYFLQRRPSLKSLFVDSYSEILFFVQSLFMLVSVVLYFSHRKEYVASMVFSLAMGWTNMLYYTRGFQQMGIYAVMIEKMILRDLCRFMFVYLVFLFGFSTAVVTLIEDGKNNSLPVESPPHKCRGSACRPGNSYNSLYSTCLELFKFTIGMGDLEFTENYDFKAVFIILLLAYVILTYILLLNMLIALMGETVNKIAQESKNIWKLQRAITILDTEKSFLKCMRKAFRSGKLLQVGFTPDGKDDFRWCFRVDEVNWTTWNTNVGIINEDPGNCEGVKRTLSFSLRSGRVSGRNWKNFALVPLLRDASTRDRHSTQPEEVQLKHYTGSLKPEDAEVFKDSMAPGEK

Compound | Relative effect on tissue damage due to barotrauma [1] | Relative effect on TRPV-1 signal transduction (current response) (TRPV-1) | Relative effect on cold induced injury (pericardial strips) | Relative effect on NaF-induced cytotoxicity [2] | Relative efficacy in foreign body model (macrophages)
9,10-nitro-trans-oleic acid [compound 15] | + |  |  |  | 
CCCCCC=CCC=C(CC=CCC=CCCCC(=O)O)[N+](=O)[O-] [compound 14, 11-nitro-5,8,11,14-eicosatrienoic acid] | + |  |  |  | 
CCCCCCCC/C(=C/CCCCCCCC(=O)O)[N+](=O)[O-] [compound 3, 10-nitro-cis-oleic acid] | + | ++ | + | + | 
CCCCCC=CCC=C(CC=CC/C=C\CCCC(=O)O)[N+](=O)[O-] [compound 22, 11-nitro-cis-5,8,11,14-eicosatetraenoic acid] | + | + | ++ | ++ | ++
CCCCCCCCCCC/C=C(/CCCCC(=O)O)[N+](=O)[O-] [compound 21, 6-nitro-cis-6-octadecenoic acid] |  |  | + |  | +
CC/C=C\C/C=C\C/C=C(/CCCCCCCC(=O)O)[N+](=O)[O-] [compound 6, 9-nitro-all-cis-9-12,15-octadecatrienoic acid] | + | + | ++ |  | 
CCCCCCCC/C=C(/CCCCCCCC(=O)O)[N+](=O)[O-] [compound 1, 9-nitro cis-oleic acid] | ++ | ++ | ++ | ++ | 
CCCCC/C=C\C/C(=C\CCCCCCCC(=O)O)[N+](=O)[O-] [compound 2, 10-nitro-cis-linoleic acid] | + | ++ | ++ | ++ | 
CCCCC=C(C=CC=CCCCCCCCC(=O)O)[N+](=O)[O-] [compound 11, 13-nitro-octadeca-9,11,13-trienoic acid] | + |  |  |  | 
CCCCCCCC/C=C(/CCCCCCCCCCCCCC(=O)O)[N+](=O)[O-] [compound 8, 15-nitro-cis-15-tetracosenoic acid] | + |  |  |  | 
9,10-nitro-cis-oleic acid [compound 10] | ++ | ++ | + |  | 
